From patent publication US7544479B2, “Method for identifying MLK inhibitors for treatment of neurological conditions” (priority 1998, dated 2009)

B1: SEK1 (K54R): dominant negative mutant of SEK1, known to specifically block JNK activation; expressed from a vector (protein, UniProt P45985 2-399, looked up, variant K54R)
Dual specificity …: AAPSPSGGGGSGGGSGSGTPGPVGSPAPGHPAVSSMQGKRKALKLNFANPPFRSTARFTLNPNPTGVQNPHIERLRTHSIESSGKLKISPEQHWDFTAEDLKDLGEIGRGAYGSVNKMVHKPSGQIMAVKRIRSTVDEKEQKQLLMDLDVVMRSSDCPYIVQFYGALFREGDCWICMELMSTSFDKFYKYVYSVLDDVIPEEILGKITLATVKALNHLKENLKIIHRDIKPSNILLDRSGNIKLCDFGISGQLVDSIAKTRDAGCRPYMAPERIDPSASRQGYDVRSDVWSLGITLYELATGRFPYPKWNSVFDQLTQVVKGDPPQLSNSEEREFSPSFINFVNLCLTKDESKRPKYKELLKHPFILMYEERAVEVACYVCKILDQMPATPSSPMYVD
modifications: expressed from vector; dominant negative

Legend:
[1] = tested on: HN33 cells; conditions: for induction of apoptotic cell death of HN33 cells: glutamate 250 μM or kainic acid 200 μM
[2] = tested on: JNK; assay: JNK activity in HN33 cell lysates (GST-c-Jun phosphorylation, Western blot); format: cell-based, rat; conditions: glutamate 250 μM or kainic acid 200 μM, room temperature, 15 minutes
[3] = tested on: NMDA receptor; conditions: rats given glutamate, quinolinic acid or kainic acid; cited from earlier work
[4] = tested on: HN33 cells; assay: TUNEL assay of apoptosis induced by expression of APP-C-100 in HN33 cells; format: cell-based, rat; conditions: 48 hours after transfection
Excerpt: To determine the role of activation of the SEK1-JNK signal transduction pathway in Alzheimer's diseases, a cDNA fragment encoding the full-length (Kang, J., et al., Nature, 325:733-736 (1987)) or the last C-terminal 100 amino acid of amyloid precursor protein (APP) was inserted into pcDNA1 and the resulting plasmid was designated as APP-C-100. HN33 cells (60% of confluence) was transfected with pcDNA1 (control), wild-type APP, APP-C-100 by using lipofectin (Boehringer Mannheim) according to manufacture instruction. Thirty μl of lipofectin/50 mm plate was used in all transfection experiments. Twelve to seventy-two hours after transfection, HN33 cells were fixed with 4% paraformaldehyde and permeabilized with 0.1% of Triton X-100. […] TUNEL negative cells were counted under light microscope.
To further determine the role of activation of the JNK activation in Alzheimer's diseases, HN33 cells were transfected with pcDNA1, wild-type APP expression vector, or mutant SEK1 expression vector using lipofectin (Boehringer Mannheim) according to manufacture instruction. […] TUNEL negative cells (living cells) were counted.
To determine further the role of activation of the MLK activation in Alzheimer's diseases, HN33 cells were co-transfected with pcDNA1, wild-type expression vector, with kinase dead MLK2 expression vector. […] TUNEL negative cells (living cells) were counted.

[5] = tested on: HN33 cells; assay: TUNEL assay of apoptosis induced by expression of MLK2 in HN33 cells; format: cell-based, rat; conditions: co-transfection with wild-type MLK2; 48 hours after transfection
Excerpt: To examine whether expression of MLK2 induces neuronal cell death, HN33 cells were transfected with pRK5CMV, wild-type or kinase dead MLK2 expression vector using lipofectin (Boehringer Mannheim) according to manufacture instruction. Forty-eight hours after transfection, cells were fixed and stained with TUNEL, as described above. TUNEL negative cells (living cells) were counted.
To determine whether the role of the SEK1-JNK signal transduction pathway in neuronal cell death induced by expression of MLK2, HN33 cells were co-transfected with pEBG+pRK5CMV (control), wild-type SEK1 expression vector+wild-type MLK2 expression vector, or dominant negative mutant SEK1 (K54R) expression vector+wild-type MLK2 expression vector. Forty-eight hours after transfection, cells were fixed and stained with TUNEL. TUNEL negative cells (living cells) were counted.

Molecule | induction of apoptotic cell death of HN33 cells [1] | JNK activity [2] | further results
N[C@@H](CCC(=O)O)C(=O)O [glutamate] | apoptotic cell death | induced elevation of the JNK activity | –
C[C@]12N[C@H](Cc3ccccc31)c1ccccc12 [MK-801] | – | – | induction of c-Jun expression and neuronal apoptosis [3]: blocked
C=C(C)[C@H]1CN[C@H](C(=O)O)[C@H]1CC(=O)O [kainic acid] | apoptotic cell death | induced elevation of the JNK activity | –
B1 | – | – | apoptosis induced by glutamate or kainate receptor activation, effect of expression ([1]; 250 μM glutamate or 200 μM kainate for six hours, 48 hours after transfection): blocks; apoptosis induced by expression of APP-C-100, effect of co-expression [4]: blocks; apoptosis induced by MLK expression, effect of co-expression [5]: attenuated
